Experimental data reported in patent publication US7741295B2, “Sir2 products and activities” (Albert Einstein College of Medicine of Yeshiva University, priority 2001, dated 2010).

Legend:
[1] = Stability of authentic β-1′-AADPR (elimination as a Sir2p product); assay type: physicochemical; settings: 100 μM, 40 mM phosphate buffer pH 6.25, one hr at 55° C., HPLC
From the text: Elimination of β-1′-AADPR as a Sir2p product.

[2] = Interconversion rates of 2′- and 3′-AADPR (HPLC, NMR); assay type: physicochemical
Description: Interconversion rates of 2′- and 3′-AADPR. Sample of both 2′- and 3′-AADPR were incubated at 15° C. and analyzed by HPLC at 40 min intervals (C-18 column; 50 mM ammonium acetate pH 5.0). The percent of the 3′-isomer at a given time was fit to the equation 3′-AADPR (%)=Pa exp (−kt)+Pf where Pa+Pf=P0; where Pa is the percent of the 3′-isomer above equilibrium at time=0, t is time and k is the first order rate constant for the conversion. Pf is the percent at equilibrium and P0 is the initial percent. HPLC and NMR analysis established the 2′- and 3′-isomers concentration as a function of time. NMR was in 10% d4-methanol/90% D2O at 0° C. or in 100% D2O at 20° C.

Sir2Af2 [3] = biological target: T1, Sir2Af2 (Archaeoglobus fulgidus, UniProt O30124); experiment: Low temperature ^1H NMR analysis of Sir2p reaction products (order of product formation); assay type: biochemical; settings: 5° C.
T1 construct: made in house
T1 sequence (O30124 1-253): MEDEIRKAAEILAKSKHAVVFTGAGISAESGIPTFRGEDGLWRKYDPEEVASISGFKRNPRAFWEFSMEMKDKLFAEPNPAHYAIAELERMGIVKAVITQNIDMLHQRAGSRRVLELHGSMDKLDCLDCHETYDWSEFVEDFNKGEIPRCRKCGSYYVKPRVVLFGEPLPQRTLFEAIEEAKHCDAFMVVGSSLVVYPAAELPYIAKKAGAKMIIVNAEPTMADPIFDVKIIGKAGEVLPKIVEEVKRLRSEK
Description: Low temperature studies of Sir2Af2 to identify order of product production. Sir2Af2 catalyzed deacetylation reactions were performed at 8° C. to determine the order of product formation. A 200 μL solution containing 150 μM NAD^+, 300 μM peptide JB12, in 40 mM potassium phosphate pH 6.2 were cooled to 8° C. and then 1 μL of 9 μg/μL of Sir2Af2 was added to initiate the reaction. Reactions were assayed by HPLC using 0.5% TFA as an eluant. Peals at 17 and 20 min were used to quantitate 3′- and 2′-AADPR at 30 minute intervals.
Low temperature ^1H NMR analysis of Sir2p reaction products. A solution of 1.7 mg Sir2Af2 enzyme in 95% D2O, 50 mM potassium phosphate pH 6.3 was concentrated to 550 μL using centrifugation filtration. This sample was mixed with 2 mg JB12 peptide and cooled to 5° C. in a 600 MHz NMR spectrometer. Spectra were obtained and 280 μL of ice-chilled 22 mM NAD^+ solution in 50 mM potassium phosphate pH 6.3 in 99% D2O was added to initiate the reaction. ^1H NMR 1D spectra were obtained at intervals over 18 hr at 5° C.

Sir2Af1 = biological target: T2, Sir2Af1 (Archaeoglobus fulgidus, UniProt O28597); settings: cited from earlier work
T2 construct: made in house
T2 sequence (O28597 1-245): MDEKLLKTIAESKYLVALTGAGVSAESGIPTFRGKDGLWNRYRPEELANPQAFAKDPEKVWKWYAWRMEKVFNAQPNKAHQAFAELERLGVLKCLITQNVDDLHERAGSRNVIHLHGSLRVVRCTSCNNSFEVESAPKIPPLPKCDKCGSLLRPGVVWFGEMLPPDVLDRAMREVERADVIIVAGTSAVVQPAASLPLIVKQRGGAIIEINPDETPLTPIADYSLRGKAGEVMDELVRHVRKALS

AfSir2 = experiment: Inhibition of AfSir2 by ADPR; assay type: biochemical, Archaeoglobus fulgidus
Sir2 = settings: cited from earlier work
esterase activity [4] = experiment: Breakdown of AADPR by esterase activity in hamster ovary cell extract; assay type: in vitro ADME; settings: hamster ovary cells extract
From the text: (§1) The use of AADPR or radiolabeled AADPR is a strategy to characterize and discover the esterases (or other enzymes) that break down or utilize AADPR in vivo. Specifically, AADPR breakdown can be measured by HPLC or TLC assay. When radiolabels are used, amounts of AADPR necessary for this purpose can be as small as 250 pmoles.

esterase activity [5] = experiment: Breakdown of AADPR by esterase activity in rat liver extract; assay type: in vitro ADME
From the text: as §1

Sir2Af2 [6] = biological target: T1, Sir2Af2; experiment: Ara-F-NAD^+ as NAD^+ analogue: substrate and nicotinamide exchange reactions with Sir2Af2; assay type: biochemical; settings: for [Carbonyl-^14C]-nicotinamide exchange catalysed by Sir2Af2: 5 mM nicotinamide, 300 μM peptide; for Substrate in Sir2Af2 deacetylation of peptide JB12: ara-F-NAD^+ 50 μM, JB12 300 μM, pH 6.25, C-18 HPLC
Description: (§2) Ara-F-NAD^+ as an NAD^+ analogue. Ara-F NAD^+ is an inhibitor of ADP-ribosyl-transferase and was used to evaluate Sir2Af2. Ara-F-NAD^+ was synthesized as previously reported^44. Deacetylation of peptide JB12 (300 μM) by Sir2Af2 (10 μg) in the presence of ara-F-NAD^+ (50 μM) was tested in 200 μL of 40 mM potassium phosphate pH 6.25. No change of ara-F-NAD^+ was detected by C-18 reverse phase HPLC. […] A control run with […] and NAD^+ established [Carbonyl-^14C]-nicotinamide exchange into NAD^+, confirming the Sir2 base-exchange reaction. […] Inhibition of Sir2Af2 by ara-F-NAD^+ was evaluated by incubation of Sir2Af2 enzyme (7 μM) and ara-F-NAD^+ (20 μM) in the presence of 300 μM JB12 peptide in potassium phosphate pH 6.25 buffer. A reaction mixture lacking ara-F NAD^+ was the control. A positive control used the same reaction components but 500 nM CD38 in the presence of 5 μM ara-F-NAD^+. Reactions were initiated after 6 h by adding 150 μM NAD^+. Reactions were evaluated for catalytic turnover using HPLC. Catalytic turnover of Sir2Af2 was not inhibited by ara-F-NAD^+ under these reaction conditions.

Sir2Af2 [7] = biological target: T1, Sir2Af2; experiment: Inhibition of Sir2Af2 catalytic turnover by ara-F-NAD^+ (HPLC); assay type: biochemical; settings: Sir2Af2 7 μM, ara-F-NAD^+ 20 μM, 300 μM JB12, 6 h then 150 μM NAD^+
Description: as §2

CD38 = CD38 controls with ara-F-NAD^+ (base exchange, inhibition); assay type: biochemical, human
Description: as §2

[8] = cited from earlier work
[9] = tested on: ADP-ribosyltransfer enzymes; settings: cited from earlier work

With `CC(=O)O[C@@H]1O[C@H](COP(=O)(O)OP(=O)(O)OC[C@H]2O[C@@H](n3cnc4c(N)ncnc43)[C@H](O)[C@@H]2O)[C@@H](O)[C@H]1O` [β-1′-AADPR] the “Change of β-1′-AADPR and production of 2′- or 3′-AADPR on incubation” value [1] was “no change”.

With `CC(=O)O[C@H]1C(O)O[C@H](COP(=O)(O)OP(=O)(O)OC[C@H]2O[C@@H](n3cnc4c(N)ncnc43)[C@H](O)[C@@H]2O)[C@H]1O` (stereo partly drawn) [2′-AADPR, 2′-O-acetyl-ADP-ribose] the “rate of chemical exchange of the acetyl group” value ([2]; 15° C.) was 0.45 h⁻¹, the “α/β anomeric equilibrium rate” value ([2]; NMR) was over 50 s⁻¹ and the “calculated value for k3′ to 2′” value ([2]; calculated from K and the measured rate constant, 15° C.) was 0.45 h⁻¹. The “time to establish 2′/3′ equilibrium” value ([2]; physiological temperatures of 37° C.) was at most 60 min and the “ratio kcat/k2′-3′” value (Sir2Af2 [3]) was 20.

In the case of “acetylated BSA: acetylated BSA, a non physiologic substrate”, the “Substrate of Sir2Af1 as reported in the literature” value (Sir2Af1) is listed as “is a substrate”.

For `CC(=O)O[C@@H]1[C@@H](COP(=O)(O)OP(=O)(O)OC[C@H]2O[C@@H](n3cnc4c(N)ncnc43)[C@H](O)[C@@H]2O)OC(O)[C@@H]1O` (stereo partly drawn) [3′-AADPR, 3′-O-acetyl-ADP-ribose], the “rate of chemical exchange of the acetyl group” value ([2]; 15° C.) was 0.32 h⁻¹, the “equilibrium constant K” value ([2]; 15° C., HPLC peak integrations of the 2′- and 3′-isomers) was 1.4 and the “first-order rate constant for acetyl migration k3′ to 2′” value ([2]; fit to exponential decay curve, 15° C.) was 0.32 h⁻¹.

In the case of adenosine diphosphate ribose [ADPR], the “Inhibition of AfSir2” value (AfSir2) is reported as “potent inhibitor”.

For `NC(=O)c1cccnc1` [nicotinamide], the “Inhibition of Sir2” value (Sir2) is given as “inhibits the enzyme”.

With “acetyl adenosine diphosphate ribose [AADPR]” the “Breakdown of AADPR to ADPR and acetate” value (esterase activity [4]) was “high esterase activity exists that can breakdown AADPR” and the “Breakdown of AADPR to ADPR and acetate” value (esterase activity [5]) was “high esterase activity exists that can breakdown AADPR”.

With `NC(=O)c1ccc[n+]([C@@H]2O[C@H](COP(=O)([O-])OP(=O)(O)OC[C@H]3O[C@@H](n4cnc5c(N)ncnc54)[C@H](O)[C@@H]3O)[C@@H](O)[C@H]2F)c1` [ara-F-NAD^+] the “[Carbonyl-^14C]-nicotinamide exchange catalysed by Sir2Af2” value (Sir2Af2 [6]) was “no radioactivity incorporated”, the “[Carbonyl-^14C]-nicotinamide exchange catalysed by Sir2Af2” value (Sir2Af2 [6]; listed as Ara-F NAD^+) was “did not serve as a substrate” and the “Substrate in Sir2Af2 deacetylation of peptide JB12” value (Sir2Af2 [6]) was “No change”. The “Substrate in Sir2Af2 deacetylation of peptide JB12” value (Sir2Af2 [6]; listed as Ara-F NAD^+) was “did not serve as a substrate”, the “Inhibition of Sir2Af2 catalytic turnover” value (Sir2Af2 [7]) was “not inhibited” and the “Inhibition of Sir2Af2 catalytic turnover” value (Sir2Af2 [7]; listed as Ara-F-NAD^+) was “did not inactivate”. For the same compound, the “Activity (inactivation) on CD38 positive control” value (CD38; 500 nM CD38, 5 μM ara-F-NAD^+) was “activity on the control using CD38”, the “Base exchange with [^14C]nicotinamide catalysed by CD38” value (CD38; control) was “full base exchange” and the “Stability relative to NAD^+” value [8] was “roughly 50 times”. The “Inhibitor of ADP-ribosyltransfer enzymes” value [9] was “powerful inhibitor”.
